Results: publication PMC10215302 (Antibiotics, 2023)
Converted amounts (≈) assume the structure as drawn. Where two headings read alike, the source gives them in different places.

Legend:
[1] = test system: S. aureus derivative strains; format: cell-based, Staphylococcus aureus; conditions: AUC of tested strain / AUC of S. aureus Mu50
[2] = test system: S. aureus SA0077; conditions: for MIC values: Table S1: SA0077 Abf (passages on antibiotic-free media)
[3] = test system: S. aureus SA0085; conditions: for MIC values: Table S1: SA0085 Abf (passages on antibiotic-free media)
[4] = test system: S. aureus SA0422
[5] = test system: S. aureus SA0736
[6] = test system: S. aureus ATCC 29213
[7] = test system: S. aureus RN4220; conditions: for change of MICs on deletion of SACOL1927 (yfhP): S. aureus mutant strain RN4220, allele replacement; for MIC: Table S4: RN4220
[8] = test system: S. aureus derivative strains
[9] = test system: S. aureus (VISA/hVISA isolates; MprF P314L strains); conditions: MprF AAS P314L, cited from earlier work
[10] = SA0077, selecting agent DAP, passage 5
[11] = SA0077, selecting agent DAP, passage 20
[12] = SA0077, selecting agent DAP, passage 40
[13] = SA0077, selecting agent VAN, passage 0
[14] = SA0077, selecting agent VAN, passage 5
[15] = SA0077, selecting agent VAN, passage 20
[16] = SA0077, selecting agent VAN, passage 40
[17] = Table S4: SA0077, strain before selection
[18] = SA0085, selecting agent DAP, passage 5
[19] = SA0085, selecting agent DAP, passage 20
[20] = SA0085, selecting agent DAP, passage 40
[21] = SA0085, selecting agent VAN, passage 0
[22] = SA0085, selecting agent VAN, passage 5
[23] = SA0085, selecting agent VAN, passage 20
[24] = SA0085, selecting agent VAN, passage 40
[25] = Table S4: SA0085, strain before selection
[26] = SA0422, selecting agent DAP, passage 5
[27] = SA0422, selecting agent DAP, passage 20
[28] = SA0422, selecting agent DAP, passage 40
[29] = SA0422, selecting agent VAN, passage 0
[30] = SA0422, selecting agent VAN, passage 5
[31] = SA0422, selecting agent VAN, passage 20
[32] = SA0422, selecting agent VAN, passage 40
[33] = Table S4: SA0422, strain before selection
[34] = SA0736, selecting agent DAP, passage 5
[35] = SA0736, selecting agent DAP, passage 20
[36] = SA0736, selecting agent DAP, passage 40Y (yellow colonies)
[37] = SA0736, selecting agent VAN, passage 0
[38] = SA0736, selecting agent VAN, passage 20
[39] = SA0736, selecting agent VAN, passage 40
[40] = Table S1: SA0736 DAP-W (40 passages on daptomycin, white colonies)
[41] = Table S1: SA0736 DAP-Y (40 passages on daptomycin, yellow colonies)
[42] = Table S4: SA0736, strain before selection
[43] = ATCC 29213, selecting agent DAP, passage 5
[44] = ATCC 29213, selecting agent DAP, passage 20
[45] = ATCC 29213, selecting agent DAP, passage 40
[46] = ATCC 29213, selecting agent VAN, passage 0
[47] = ATCC 29213, selecting agent VAN, passage 5
[48] = ATCC 29213, selecting agent VAN, passage 20
[49] = ATCC 29213, selecting agent VAN, passage 40
[50] = Table S4: ATCC 29213, strain before selection
[51] = Table S1: RN4220 ∆ (strain with deletion in SACOL1927)

In the case of vancomycin, the “PAP AUC ratio” value ([1]; after 40 passages in vancomycin) is reported as 1.0–1.2, the “PAP AUC ratio” value ([1]; after daptomycin selection) is reported as 0.4–1.0 and the MIC [2, 10] is reported as 2 mg/L. The MIC [2, 11] was 4 mg/L, the MIC [2, 12] was 4 mg/L and the MIC [2, 13] was 1 mg/L. For the same molecule, the MIC [2, 14] was 4 mg/L, the MIC [2, 15] was 8 mg/L and the MIC [2, 16] was 8 mg/L. It also gave an MIC values [2] of 1 mg/L, an MIC [2, 17] of 1 mg/L and an MIC [3, 18] of 1 mg/L. For the same molecule, the MIC [3, 19] was 2 mg/L, the MIC [3, 20] was 4 mg/L and the MIC [3, 21] was 1 mg/L. The MIC [3, 22] was 4 mg/L, the MIC [3, 23] was 4 mg/L and the MIC [3, 24] was 8 mg/L. For the same molecule, the MIC values [3] was 1 mg/L, the MIC [3, 25] was 1 mg/L and the MIC [4, 26] was 1 mg/L. The MIC [4, 27] was 2 mg/L, the MIC [4, 28] was 2 mg/L and the MIC [4, 29] was 1 mg/L. It also gave an MIC [4, 30] of 2 mg/L, an MIC [4, 31] of 4 mg/L and an MIC [4, 32] of 4 mg/L. The MIC [4, 33] was 1 mg/L, the MIC [5, 34] was 0.5 mg/L and the MIC [5, 35] was 4 mg/L. It also gave an MIC ([5]; SA0736, selecting agent DAP, passage 40W (white colonies)) of 4 mg/L, an MIC [5, 36] of 4 mg/L and an MIC [5, 37] of 0.5 mg/L. For the same molecule, the MIC [5, 38] was 8 mg/L, the MIC [5, 39] was 8 mg/L and the MIC values [5, 40] was 4 mg/L. The MIC values [5, 41] was 4 mg/L, the MIC [5, 42] was 0.5 mg/L and the MIC [6, 43] was 1 mg/L. It also gave an MIC [6, 44] of 2 mg/L, an MIC [6, 45] of 4 mg/L and an MIC [6, 46] of 0.25 mg/L. It also gave an MIC [6, 47] of 0.25 mg/L, an MIC [6, 48] of 2 mg/L and an MIC [6, 49] of 8 mg/L. The MIC [6, 50] was 0.25 mg/L, the “change of MICs on deletion of SACOL1927 (yfhP)” value [7] was “did not change” and the MIC values ([7]; Table S1: RN4220 WT) was 0.5 mg/L. For the same molecule, the MIC values [7, 51] was 0.5 mg/L, the MIC [7] was 0.5 mg/L and the “MICs of derivative strains at the end of selection with vancomycin” value ([8]; derivative strains, end of vancomycin selection) was 4 to 8 µg/mL. The “change of MICs after 10 passages in antibiotic-free media” value ([8]; vancomycin-selected derivatives, stability test) was “decreased by one dilution”.
CCCCCCCCCC(=O)N[C@@H](Cc1c[nH]c2ccccc12)C(=O)N[C@H](CC(N)=O)C(=O)N[C@@H](CC(=O)O)C(=O)N[C@@H]1C(=O)NCC(=O)N[C@@H](CCCN)C(=O)N[C@@H](CC(=O)O)C(=O)N[C@H](C)C(=O)N[C@@H](CC(=O)O)C(=O)NCC(=O)N[C@H](CO)C(=O)N[C@@H]([C@H](C)CC(=O)O)C(=O)N[C@@H](CC(=O)c2ccccc2N)C(=O)O[C@@H]1C [DAP, daptomycin] gave an MIC [2, 10] of 0.5 mg/L (≈ 0.309 µM), an MIC [2, 11] of 8 mg/L (≈ 4.94 µM) and an MIC [2, 12] of 32 mg/L (≈ 19.7 µM). The MIC [2, 13] was 0.25 mg/L (≈ 0.154 µM), the MIC [2, 14] was 2 mg/L (≈ 1.23 µM) and the MIC [2, 15] was 2 mg/L (≈ 1.23 µM). The MIC [2, 16] was 2 mg/L (≈ 1.23 µM), the MIC values [2] was 0.25 mg/L (≈ 0.154 µM) and the MIC [2, 17] was 0.25 mg/L (≈ 0.154 µM). For the same molecule, the MIC [3, 18] was 0.5 mg/L (≈ 0.309 µM), the MIC [3, 19] was 32 mg/L (≈ 19.7 µM) and the MIC [3, 20] was greater than 64 mg/L. It also gave an MIC [3, 21] of 0.5 mg/L (≈ 0.309 µM), an MIC [3, 22] of 1 mg/L (≈ 0.617 µM) and an MIC [3, 23] of 2 mg/L (≈ 1.23 µM). For the same molecule, the MIC [3, 24] was 2 mg/L (≈ 1.23 µM), the MIC values [3] was 0.5 mg/L (≈ 0.309 µM) and the MIC [3, 25] was 0.5 mg/L (≈ 0.309 µM). For the same molecule, the MIC [4, 26] was 8 mg/L (≈ 4.94 µM), the MIC [4, 27] was 16 mg/L (≈ 9.87 µM) and the MIC [4, 28] was greater than 64 mg/L. For the same molecule, the MIC [4, 29] was 0.25 mg/L (≈ 0.154 µM), the MIC [4, 30] was 1 mg/L (≈ 0.617 µM) and the MIC [4, 31] was 1 mg/L (≈ 0.617 µM). The MIC [4, 32] was 2 mg/L (≈ 1.23 µM), the MIC [4, 33] was 0.25 mg/L (≈ 0.154 µM) and the MIC [5, 34] was 1 mg/L (≈ 0.617 µM). The MIC [5, 35] was 32 mg/L (≈ 19.7 µM), the MIC [5, 36] was greater than 64 mg/L and the MIC [5, 37] was 0.25 mg/L (≈ 0.154 µM). The MIC ([5]; SA0736, selecting agent VAN, passage 5) was 0.5 mg/L (≈ 0.309 µM), the MIC [5, 38] was 0.5 mg/L (≈ 0.309 µM) and the MIC [5, 39] was 2 mg/L (≈ 1.23 µM). It also gave an MIC values [5, 40] greater than 64 mg/L, an MIC values [5, 41] greater than 64 mg/L and an MIC [5, 42] of 0.25 mg/L (≈ 0.154 µM). The MIC [6, 43] was 0.5 mg/L (≈ 0.309 µM), the MIC [6, 44] was 32 mg/L (≈ 19.7 µM) and the MIC [6, 45] was 64 mg/L (≈ 39.5 µM). The MIC [6, 46] was 0.125 mg/L (≈ 0.0771 µM), the MIC [6, 47] was 0.25 mg/L (≈ 0.154 µM) and the MIC [6, 48] was 2 mg/L (≈ 1.23 µM). The MIC [6, 49] was 2 mg/L (≈ 1.23 µM), the MIC [6, 50] was 0.125 mg/L (≈ 0.0771 µM) and the “change of MICs on deletion of SACOL1927 (yfhP)” value [7] was “did not change”. For the same molecule, the MIC values ([7]; Table S1: RN4220 WT) was 0.25 mg/L (≈ 0.154 µM), the MIC values [7, 51] was 0.25 mg/L (≈ 0.154 µM) and the MIC [7] was 0.25 mg/L (≈ 0.154 µM). The “MIC range by the 20th passage” value ([8]; all strains, 20th passage of daptomycin selection) was 8 to 32 mg/L, the “MIC correlated with mprF mutations” value ([8]; daptomycin-selected derivatives, after the 20th passage) was “up to 32 mg/L” and the “MICs in derivatives of all strains after selection with vancomycin” value ([8]; selection with vancomycin, derivatives of all strains) was 2 µg/mL. The MIC ([9]; moderate increase) was 2 mg/L (≈ 1.23 µM) and the “effect on MIC” value [9] was “no effect”.
